Data set [1] has as its system Aspergillus fumigatus from a chicken. Briefly: MIC, serial microdilution with INT. In kind it is cell-based. The conditions noted are these: for MIC: Aspergillus fumigatus, read-out: Minimum inhibitory concentration. The source says:
(§1) The cultures used were Escherichia coli (American Type Culture Collection, ATCC 25922) labelled as 1, E. coli isolates (B1989/17 and B1962/17) labelled as 2 and 3 from equine urine, collected from the Department of Veterinary Tropical Diseases, Faculty of Veterinary Science, University of Pretoria, South Africa, Klebsiella pneumoniae isolate from commercial chicken eggs, Enterococcus faecalis (ATCC 29212), Pseudomonas aeruginosa (ATCC 27853), Staphylococcus aureus (ATCC 29213), Candida albicans from a Gouldian finch, Aspergillus fumigatus from a chicken and Cryptococcus neoformans from a cheetah. These microbial strains were maintained on MHA or SDA for bacteria and fungi respectively, while the isolates were maintained on blood agar.
(§2) Ten mg/mL of each fraction and 1 mg/mL of isolated compounds were prepared in 10% DMSO and tested against S. aureus, E. coli, K. pneumoniae, E. faecalis, P. aeruginosa, C. albicans, C. neoformans and A. fumigatus. Cultures were prepared by inoculating each microbial strain from prepared agar plates into sterilized MHB for bacterial and SDB for fungi in sterile McCartney bottles respectively. The inoculums were placed in an orbital shaker incubator. Bacterial strains were incubated at 37 °C for 18 h. Each bacterial culture was diluted in fresh MHB and the absorbance was measured at a wavelength of 560 nm using a microplate reader (Epoch Biotek). The readings were compared to a McFarland standard No. 1 correlating to approximately 3 × 10^8 cfu/mL). For fungi strains, cultures were incubated at 30 °C for 24 h (C. albicans), 72 h (C. neoformans) and 120 h (A. fumigatus) respectively. The resultant cells and spores were washed with sterile normal saline and absorbance was measured at a wavelength of 560 nm and turbidity was adjusted to a McFarland standard 1.This was further diluted in a 1:10 ratio in SDB to a turbidity of 5 × 10^5 cfu/mL. These diluted cultures (bacterial and fungi) were used for the screening following the serial microdilution method of Eloff.
On the technique in general: In broth dilution the organism is exposed to a series of concentrations in liquid medium.

Data set [2] concerns Candida albicans from a Gouldian finch. As to the kind of experiment: MIC, serial microdilution with INT. In kind it is cell-based. The conditions noted are these: C. albicans, read-out: Minimum inhibitory concentration.
From the text: as §1, §2

The subject of data set [3] is Cryptococcus neoformans from a cheetah. As to the kind of experiment: MIC, serial microdilution with INT. Type of data set: cell-based. Particulars: C. neoformans, read-out: Minimum inhibitory concentration.
From the text: as §1, §2

Data set [4] has as its system C. neoformans and A. fumigatus. Briefly: Mean MIC over the fungal isolates. Type of data set: cell-based.
From the text: as §1, §2

Data set [5] deals with E. coli (B1962/17) isolate from equine urine, E. coli (3). As to the kind of experiment: MIC, serial microdilution with INT. The conditions noted are these: Escherichia coli, read-out: Minimum inhibitory concentration. In kind it is cell-based.
From the text: as §1, §2

Data set [6] concerns E. coli (B1989/17) isolate from equine urine, E. coli (2). Briefly: MIC, serial microdilution with INT. Type of data set: cell-based. Particulars: Escherichia coli, read-out: Minimum inhibitory concentration.
From the text: as §1, §2

The test system of data set [7] is Escherichia coli (ATCC 25922), E. coli (1). As to the kind of experiment: MIC, serial microdilution with INT. In kind it is cell-based. The conditions noted are these: for MIC: Escherichia coli, ATCC25922, E. coli (1), read-out: Minimum inhibitory concentration.
From the text: as §1, §2

For data set [8], the system named is Klebsiella pneumoniae isolate from commercial chicken eggs. Briefly: MIC, serial microdilution with INT. Type of data set: cell-based. The conditions noted are these: K. pneumoniae; for MIC: Klebsiella pneumoniae, read-out: Minimum inhibitory concentration.
From the text: as §1, §2

Data set [9] deals with Staphylococcus aureus (ATCC 29213). As to the kind of experiment: MIC, serial microdilution with INT. In kind it is cell-based. Particulars: ATCC29213, S. aureus, read-out: Minimum inhibitory concentration.
From the text: as §1, §2

In data set [10] the test system is S. aureus, E. coli (1), E. coli (2), E. coli (3), K. pneumoniae. Briefly: Mean MIC over the bacterial strains. Type of data set: cell-based. Particulars: mean over the five bacterial strains of Table 3.
From the text: as §1, §2

Data set [11] relates to selected microbial strains. Briefly: MIC summarised over the selected microbial strains. In kind it is cell-based. Particulars: summary over bacterial and fungal strains.
From the text: as §1, with “These microbial strains were maintained on MHA or SDA for bacteria and fungi respectively, while the isolates were maintained on blood agar.” left out
Ten mg/mL of each fraction and 1 mg/mL of isolated compounds were prepared in 10% DMSO and tested against S. aureus, E. coli, K. pneumoniae, E. faecalis, P. aeruginosa, C. albicans, C. neoformans and A. fumigatus. […] Each bacterial culture was diluted in fresh MHB and the absorbance was measured at a wavelength of 560 nm using a microplate reader (Epoch Biotek). The readings were compared to a McFarland standard No. 1 correlating to approximately 3 × 10^8 cfu/mL). […] The resultant cells and spores were washed with sterile normal saline and absorbance was measured at a wavelength of 560 nm and turbidity was adjusted to a McFarland standard 1.This was further diluted in a 1:10 ratio in SDB to a turbidity of 5 × 10^5 cfu/mL. […]

Data set [12] in a line: in vitro. The protocol:
(§3) Different concentrations of the compounds ranging from 0.003 to 0.2 mg/mL were tested for cytotoxicity against three cell lines; Vero monkey kidney, C3A and Caco2. Vero cells were grown and maintained in MEM, supplemented with 0.1% gentamicin and 5% foetal calf serum, while Caco2 and C3A cells were grown and maintained in DMEM supplemented with 10% foetal calf serum, 1% non-essential amino acids and 1% penicillin-streptomycin. All cells were incubated in a 5% CO2 incubator at 37 °C. Doxorubicin chloride was used as positive control while 10% DMSO used in dissolving the test samples was used as the negative control. The 3-(4,5-dimethylthiazol)-2,5-diphenyl tetrazolium bromide (MTT) assay described by Mosmann with modification by McGaw et al. was used to determine the cytotoxicity of the test samples. The lethal concentration (LC50) value was calculated as the concentration of tested sample resulting in a 50% reduction of absorbance compared to untreated cells. Selectivity index (SI) values were calculated against the MIC using the formula: […]

Data set [13] can be described thus: in vitro. The protocol:
as §3
This is another data set of the same source.

The next data set concerns Caco2 cells. Briefly: in vitro. The conditions noted are these: Caco2. How it is done:
as §3

In a further data set the test system is S. aureus. Details: method as in earlier work. Particulars: ref [70] Teffo et al.; cited from earlier work.
The next data set relates to E. coli. Further details: method as in earlier work. Particulars: ref [70] Teffo et al.; cited from earlier work.
A further data set in a line: Cytotoxicity, MTT assay. Type of data set: cell-based. The conditions noted are these: human, C3A cells, read-out: Lethal concentration (LC50). A general note: Tetrazolium dyes change colour on reduction, which living cells bring about.
The test system of data set [14] is Enterococcus faecalis (ATCC 29212). Briefly: MIC, serial microdilution with INT. Type of data set: cell-based. Particulars: ATCC29212, E. faecalis, read-out: Minimum inhibitory concentration.
From the text: as §1, §2

The test system of data set [15] is Pseudomonas aeruginosa (ATCC 27853). As to the kind of experiment: MIC, serial microdilution with INT. In kind it is cell-based. Particulars: ATCC27853, P. aeruginosa, read-out: Minimum inhibitory concentration.
From the text: as §1, §2

Structures are written as SMILES. Converted amounts (≈) assume the structure as drawn. Where two headings read alike, the source gives them in different places. A value given as a limit tells only on which side of the number the result lay.

Method for Cytotoxicity, MTT assay: Different concentrations of the compounds ranging from 0.003 to 0.2 mg/mL were tested for cytotoxicity against three cell lines; Vero monkey kidney, C3A and Caco2. Vero cells were grown and maintained in MEM, supplemented with 0.1% gentamicin and 5% foetal calf serum, while Caco2 and C3A cells were grown and maintained in DMEM supplemented with 10% foetal calf serum, 1% non-essential amino acids and 1% penicillin-streptomycin. All cells were incubated in a 5% CO2 incubator at 37 °C. Doxorubicin chloride was used as positive control while 10% DMSO used in dissolving the test samples was used as the negative control. The 3-(4,5-dimethylthiazol)-2,5-diphenyl tetrazolium bromide (MTT) assay described by Mosmann [50] with modification by McGaw et al. [51] was used to determine the cytotoxicity of the test samples. The lethal concentration (LC50) value was calculated as the concentration of tested sample resulting in a 50% reduction of absorbance compared to untreated cells.

Turning to `C[C@@H]1[C@H](O)[C@@H](C)/C=C/C=C/C=C/C=C/C=C/C=C/C=C/[C@H](O[C@@H]2O[C@H](C)[C@@H](O)[C@H](N)[C@@H]2O)C[C@@H]2O[C@](O)(C[C@@H](O)C[C@@H](O)[C@H](O)CC[C@@H](O)C[C@@H](O)CC(=O)O[C@H]1C)C[C@H](O)[C@H]2C(=O)O` [Amphotericin B, amphotericin B, reference compound], the MIC in [1] (48 h) turned out to be 31 µg/mL (≈ 33.5 µM); in [1] (72 h) it was 63 µg/mL (≈ 68.2 µM); in data set [1] (120 h) it was 125 µg/mL (≈ 135 µM); in [2] (24 h) it was 31 µg/mL (≈ 33.5 µM); in data set [2] (48 h) it was 63 µg/mL (≈ 68.2 µM); in data set [3] (72 h, 72 h), 125 µg/mL (≈ 135 µM). Moreover, the MIC in [3] (120 h, 120 h) was 125 µg/mL (≈ 135 µM); in data set [4] (all time points of Table 3), 70 ± 60 µg/mL (≈ 75.8 µM). The “Mean MIC” value in data set [4] (all time points of Table 3, listed as Amp B) amounted to 70 µg/mL.

Regarding `O=C(O)c1cn(C2CC2)c2cc(N3CCNCC3)c(F)cc2c1=O` [Ciprofloxacin, ciprofloxacin, reference compound], the MIC was 1 µg/mL (≈ 3.02 µM) in data set [5]; 0.05 µg/mL (≈ 0.151 µM) in data set [6]; 2 µg/mL (≈ 6.04 µM) in [7]; 50 µg/mL (≈ 151 µM) in data set [8]; 63 µg/mL (≈ 190 µM) in [9]; 20 µg/mL (≈ 60.4 µM) in data set [10]. The Minimum inhibitory concentration in data set [8] came to 50 µg/mL (≈ 151 µM).

Consider `COc1ccc(-c2cc(=O)c3c(O)c(OC)c(O)cc3o2)cc1` [Compound 1, 5,7-dihydroxy-4′,6-dimethoxy-flavone], for which the Minimum inhibitory concentration entry in data set [1] (48 h) was “good activity”. Besides, the MIC in data set [1] (48 h) is 63 µg/mL (≈ 200 µM); in [1] (72 h) it was 250 µg/mL (≈ 795 µM); in [1] (120 h) it was > 2500 µg/mL; in data set [3] (48 h, 48 h), > 250 µg/mL; in [3] (72 h, 72 h), > 250 µg/mL; in [5], > 250 µg/mL. The MIC in data set [6] was > 250 µg/mL; in [7] it was 250 µg/mL (≈ 795 µM); in [8] it was 250 µg/mL (≈ 795 µM); in data set [9] it was 250 µg/mL (≈ 795 µM); in data set [10], 250 µg/mL (≈ 795 µM). In addition, the “MIC, range or verdict over the strains tested” value in data set [11] is reported as “weak antimicrobial activity”.

On to `COc1ccc(-c2oc3cc(O)cc(O)c3c(=O)c2O)cc1` [Compound 4, 3,5,7-trihydroxy-4′-methoxyflavone], for which the MIC in data set [1] (48 h) was 250 µg/mL (≈ 833 µM); in data set [1] (72 h), > 250 µg/mL; in data set [1] (120 h), > 2500 µg/mL; in data set [3] (48 h, 48 h), > 250 µg/mL; in data set [3] (72 h, 72 h) it was > 250 µg/mL; in data set [5], > 250 µg/mL. The MIC is > 250 µg/mL in data set [6], 125 µg/mL (≈ 416 µM) in [7], > 250 µg/mL in [8] and 250 µg/mL (≈ 833 µM) in data set [9]. Also, in [11], the “MIC, range or verdict over the strains tested” value was “weak antimicrobial activity”. The CC50 in “in vitro [12]” was > 200 µg/mL; in the data set “in vitro [13]” it was 193 µg/mL (≈ 643 µM). Further, the “Selectivity index (LC50/MIC)” value was 1.544 in the data set with Caco2 cells (E. coli (1)) and 0.772 in the data set with Caco2 cells (S. aureus). Moreover, the figures for the “MIC / antibacterial activity” value with S. aureus and with E. coli were 250 µg/mL (≈ 833 µM) and 125 µg/mL (≈ 416 µM), respectively.

Consider `COc1cccc2c1C(=O)c1c(O)c3c(c(O)c1C2=O)C[C@@](O)(C(=O)CO)C[C@@H]3O[C@H]1C[C@H](N)[C@H](O)[C@H](C)O1` [Doxorubicin, Doxorubicin chloride, reference compound], for which, in the data set “Cytotoxicity, MTT assay”, the CC50 is 3.3 µg/mL.

On to `CNC(C)C1CCC(N)C(OC2C(N)CC(N)C(OC3OCC(C)(O)C(NC)C3O)C2O)O1` (stereo not shown) [Gentamicin, gentamicin, reference compound], for which the MIC in data set [1] (120 h) was > 2500 µg/mL; in data set [5] it was 8 µg/mL (≈ 16.8 µM); in data set [6], 31 µg/mL (≈ 64.9 µM); in data set [14] it was 500 µg/mL (≈ 1050 µM); in data set [7], 20 µg/mL (≈ 41.9 µM); in data set [8], 500 µg/mL (≈ 1050 µM). The figures for the MIC in data set [15], in data set [9] and in data set [10] were 8 µg/mL (≈ 16.8 µM), 8 µg/mL (≈ 16.8 µM) and 60 ± 110 µg/mL (≈ 126 µM), respectively. In addition, the Minimum inhibitory concentration in data set [7] (E. coli (1)) came out at 16 µg/mL (≈ 33.5 µM); in [8], 250 µg/mL (≈ 523 µM). Moreover, in data set [10], the “Mean MIC” value turned out to be 60 µg/mL. Besides, the CC50 in the data set “in vitro [12]” and in “in vitro [13]” was > 200 µg/mL in each case.

Values taken from publication PMC7376718, “Flavonoids isolated from the South African weed Chromolaena odorata (Asteraceae) have pharmacological activity against uropathogens” (BMC Complementary Medicine and Therapies, 2020).
